Reference: patent US20130130985A1 (priority 2010, published 2013)
Where a SMILES comes first, the peptide text is derived from it.

How the values were obtained:
hV1bR [1] = biological target: T1, hV1bR (Homo sapiens, UniProt P47901); experiment: Functional FLIPR assay (calcium signalling); format: cell-based
T1 construct: expressed in transfected cells; host or cells: COS-1
T1 sequence (P47901 1-424): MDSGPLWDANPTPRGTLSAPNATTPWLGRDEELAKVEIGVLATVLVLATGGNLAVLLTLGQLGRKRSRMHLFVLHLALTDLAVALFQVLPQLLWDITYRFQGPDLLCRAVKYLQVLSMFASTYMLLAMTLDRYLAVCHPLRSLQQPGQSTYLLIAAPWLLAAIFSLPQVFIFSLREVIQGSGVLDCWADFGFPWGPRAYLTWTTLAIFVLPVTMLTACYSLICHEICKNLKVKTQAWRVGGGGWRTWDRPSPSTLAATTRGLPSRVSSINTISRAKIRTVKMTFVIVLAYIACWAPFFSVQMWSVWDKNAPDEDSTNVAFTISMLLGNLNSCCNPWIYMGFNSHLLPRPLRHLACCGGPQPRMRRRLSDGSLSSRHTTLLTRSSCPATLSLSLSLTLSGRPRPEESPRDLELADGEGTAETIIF
Description: (§1) To allow for complete de-esterification of the dye, cells were washed 5-10 min with PSS before transfer to a FLIPR^TETRA (Molecular Devices, Sunnyvale, Calif.) fluorescent plate reader. […] The baseline fluorescence was set to a minimum of 1000 arbitrary fluorescence units by adjusting camera gain and excitation intensity. Compounds were added as 3× concentrated stock solutions in PSS, with 10 baseline fluorescence readings prior to compound addition followed by fluorescence reading every second for 180 s.
(§2) As previously described, raw fluorescence data was converted to ΔF/F values by subtracting baseline fluorescence readings from subsequent time points and dividing by baseline fluorescence values. […] A 4-parameter Hill equation with Hill coefficient=1 was fitted to the data using GraphPad Prism (Version 4.00, San Diego, Calif.).

hV1aR [2] = biological target: T2, hV1aR (Homo sapiens, UniProt P37288); experiment: Functional FLIPR assay (calcium signalling); format: cell-based
T2 construct: expressed in transfected cells; host or cells: COS-1
T2 sequence (P37288 whole entry): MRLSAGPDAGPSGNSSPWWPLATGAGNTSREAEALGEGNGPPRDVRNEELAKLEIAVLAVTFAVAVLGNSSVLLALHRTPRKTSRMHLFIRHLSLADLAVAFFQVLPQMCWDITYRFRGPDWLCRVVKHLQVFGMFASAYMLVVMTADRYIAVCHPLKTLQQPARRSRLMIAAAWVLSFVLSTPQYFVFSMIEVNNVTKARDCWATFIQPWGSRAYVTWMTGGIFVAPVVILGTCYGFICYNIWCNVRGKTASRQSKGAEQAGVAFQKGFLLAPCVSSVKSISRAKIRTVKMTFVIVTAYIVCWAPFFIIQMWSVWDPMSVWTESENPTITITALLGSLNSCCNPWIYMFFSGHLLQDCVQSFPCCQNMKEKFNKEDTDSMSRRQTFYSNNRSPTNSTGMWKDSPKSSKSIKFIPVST
Description: as §1, §2

hOTR [3] = biological target: T3, hOTR (Homo sapiens, UniProt P30559); experiment: Functional FLIPR assay (calcium signalling); format: cell-based
T3 construct: expressed in transfected cells; host or cells: COS-1
T3 sequence (P30559 1-389): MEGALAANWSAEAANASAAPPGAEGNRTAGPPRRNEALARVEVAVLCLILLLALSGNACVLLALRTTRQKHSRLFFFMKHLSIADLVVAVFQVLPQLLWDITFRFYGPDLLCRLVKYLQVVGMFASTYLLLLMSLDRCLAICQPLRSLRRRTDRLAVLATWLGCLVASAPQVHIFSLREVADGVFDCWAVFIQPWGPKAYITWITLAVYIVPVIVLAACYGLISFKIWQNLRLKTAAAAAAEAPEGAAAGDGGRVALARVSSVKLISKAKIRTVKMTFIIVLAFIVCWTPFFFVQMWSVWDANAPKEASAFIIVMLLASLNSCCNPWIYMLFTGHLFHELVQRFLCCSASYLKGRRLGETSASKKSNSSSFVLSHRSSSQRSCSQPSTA
Description: as §1, §2

hV1bR [4] = biological target: T1, hV1bR; experiment: Functional IP-One HTRF assay; format: cell-based
Description: (§3) Cells were lysed by the addition of the HTRF reagents (the europium cryptate-labeled anti-IP1 antibody and the d2-labeled IP1 analogue) diluted in lysis buffer. The assays were incubated for 1 h at room temperature.

hOTR [5] = biological target: T3, hOTR; experiment: Functional IP-One HTRF assay; format: cell-based; settings: for Emax: read-out: hOTR Emax
Description: as §3

hOTR [6] = biological target: T3, hOTR; experiment: Radioligand binding assay, displacement of 3H-OT, COS-1 membranes
hV1bR [7] = biological target: T1, hV1bR; experiment: Radioligand binding assay, displacement of 3H-AVP, COS-1 membranes
[8] = Stability assay in rat plasma and human serum (metabolic half life); settings: Half life (h), 37° C., matrix of the values not specified
Description: 300 μL rat plasma and human serum (Sigma Aldrich) was incubated at 37° C. for 30 min. 50 mL of peptide sample (0.3 mM) in 0.1 M phosphate buffer, pH 7.2 was added to the rat plasma and human serum. The vortexed mixture was incubated at 37° C.

[9] = phosphate buffer pH 7.4, 37° C., over a period of 48 h
hV1aR [10] = biological target: T2, hV1aR; experiment: Functional IP-One HTRF assay; format: cell-based
Description: as §3

CC[C@H](C)[C@@H]1NC(=O)[C@H](Cc2ccc(O)cc2)NC(=O)CCSSC[C@@H](C(=O)N2CCC[C@H]2C(=O)N[C@@H](CC(C)C)C(=O)NCC(N)=O)NC(=O)[C@H](CC(N)=O)NC(=O)[C@H](CCC(N)=O)NC1=O [dOT]
Emax (hV1bR [1]): 100%
EC50 (hV1bR [1]; FLIPR assay, COS-1): 15.9 ± 5.96 nM
Emax (hV1aR [2]): 54%
EC50 (hV1aR [2]; FLIPR assay, COS-1): 46.1 nM
Emax (hOTR [3]): 89%
EC50 (hOTR [3]; FLIPR assay, COS-1): 0.39 nM
Emax (hV1bR [4]): 67 ± 10%
EC50 (hV1bR [4]; IP-One assay, COS-1): 470 ± 422 nM
EC50 (hOTR [5]; IP-One assay, COS-1): 0.71 nM
Emax (hOTR [5]): 100%
IC50 (hOTR [6]): 1.7 nM
IC50 (hV1bR [7]): 351 ± 125 nM

NC(=O)CC[C@@H]1NC(=O)[C@H](Cc2ccccc2)NC(=O)[C@H](Cc2ccc(O)cc2)NC(=O)[C@@H](N)CSSC[C@@H](C(=O)N2CCC[C@H]2C(=O)N[C@@H](CCCN=C(N)N)C(=O)NCC(N)=O)NC(=O)[C@H](CC(N)=O)NC1=O [AVP, arginine-vasopressin]
half-life at 0.043 mM [8]: 2 h
degradation in phosphate buffer [9]: no degradation was observed

CC[C@H](C)[C@@H]1NC(=O)[C@H](Cc2ccc(O)cc2)NC(=O)[C@@H](N)CSSC[C@@H](C(=O)N2CCC[C@H]2C(=O)N[C@@H](CC(C)C)C(=O)NCC(=O)O)NC(=O)[C@H](CC(N)=O)NC(=O)[C@H](CCC(N)=O)NC1=O [[S—S]-OT-OH, OT-OH]
Emax (hV1bR [4]): 96 ± 6%
drop in functional efficacy at the hV1bR (hV1bR [4]; compared to OT): 10-30 fold
Emax (hV1aR [10]): 77 ± 24%
drop in functional efficacy at the hOTR (hOTR [5]; compared to OT): 10-30 fold
Emax (hOTR [5]): 82 ± 13%

CC[C@H](C)[C@@H]1NC(=O)[C@H](Cc2ccc(O)cc2)NC(=O)[C@@H](N)CSSC[C@@H](C(=O)N2CCC[C@H]2C(=O)N[C@@H](CC(C)C)C(=O)NCC(N)=O)NC(=O)[C@H](CC(N)=O)NC(=O)[C@H](CCC(N)=O)NC1=O [OT, Oxytocin]
Emax (hV1aR [2]): 71%
Emax (hV1aR [10]): 79 ± 9%
degradation in phosphate buffer [9]: no degradation was observed

CC[C@H](C)[C@@H]1NC(=O)[C@H](Cc2ccc(O)cc2)NC(=O)[C@@H](N)CCSC[C@@H](C(=O)N2CCC[C@H]2C(=O)N[C@@H](CC(C)C)C(=O)NCC(N)=O)NC(=O)[C@H](CC(N)=O)NC(=O)[C@H](CCC(N)=O)NC1=O [[CH2—S]-OT] (HELM PEPTIDE1{[N[C@@H](CC[*:3])C(=O)[*:2]].Y.I.Q.N.C.P.L.G.[am]}$PEPTIDE1,PEPTIDE1,1:R3-6:R3$$$V2.0; N-terminus and C-terminus assumed)
Emax (hV1aR [10]): 75 ± 8%
Emax (hOTR [5]): 64 ± 14%
